According to ChEMBL document CHEMBL1201862, “PubChem BioAssay data set” (2004):
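These data come from cells grown in 96-well plates and exposed to compound for 48 hours at five concentrations. Here, GI50 denotes the concentration required for 50% inhibition of growth.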 Calls of active or inactive are those of the source. No stated cut-off is given here; in the data, active = GI50 up to about 1.1 µM and inactive = higher.

What was measured:
Assay in all cases: inhibition of tumour cell growth, NCI panel, 48 h
SNB-19 = tested on: SNB-19
UACC-257 = tested on: UACC-257
MOLT-4 = tested on: MOLT-4
DMS-114 = tested on: DMS-114
HOP-92 = tested on: HOP-92
HCC 2998 = tested on: HCC 2998
OVCAR-8 = tested on: OVCAR-8
NCI-H23 = tested on: NCI-H23
A549 = tested on: A549
K562 = tested on: K562
MCF7 = tested on: MCF7
RPMI-8226 = tested on: RPMI-8226
M19-MEL = tested on: M19-MEL
COLO 205 = tested on: COLO 205
HCT-116 = tested on: HCT-116
LOX IMVI = tested on: LOX IMVI
SF-539 = tested on: SF-539
OVCAR-5 = tested on: OVCAR-5
IGROV-1 = tested on: IGROV-1
EKVX = tested on: EKVX

| Structure (SMILES) | GI50 (SNB-19) | GI50 (UACC-257) | GI50 (MOLT-4) | GI50 (DMS-114) | GI50 (HOP-92) | GI50 (HCC 2998) | GI50 (OVCAR-8) | GI50 (NCI-H23) | GI50 (A549) | GI50 (K562) | GI50 (MCF7) | GI50 (RPMI-8226) | GI50 (M19-MEL) | GI50 (COLO 205) | GI50 (HCT-116) | GI50 (LOX IMVI) | GI50 (SF-539) | GI50 (OVCAR-5) | GI50 (IGROV-1) | GI50 (EKVX) |
| --- | --- | --- | --- | --- | --- | --- | --- | --- | --- | --- | --- | --- | --- | --- | --- | --- | --- | --- | --- | --- |
| O=S(=O)(CCBr)CCBr | 17.6 µM (inactive) | 3.82 µM (inactive) | 2.58 µM (inactive) | 2.18 µM (inactive) | 6.21 µM (inactive) | 6.95 µM (inactive) | 2.32 µM (inactive) | 6.52 µM (inactive) | 13.9 µM (inactive) | 3.98 µM (inactive) | 4.91 µM (inactive) | 4.53 µM (inactive) | 2.83 µM (inactive) | 3.21 µM (inactive) | 3.37 µM (inactive) | 7.67 µM (inactive) | 6.22 µM (inactive) | 13.7 µM (inactive) | 5.42 µM (inactive) | – |
| CCOC(=O)c1csc(NC(=O)C(C)N2CCOCC2)n1 (centres undefined) | > 100 µM (inactive) | > 100 µM (inactive) | > 100 µM (inactive) | – | > 100 µM (inactive) | > 100 µM (inactive) | > 100 µM (inactive) | > 100 µM (inactive) | > 100 µM (inactive) | > 100 µM (inactive) | > 100 µM (inactive) | > 100 µM (inactive) | – | > 100 µM (inactive) | – | > 100 µM (inactive) | > 100 µM (inactive) | > 100 µM (inactive) | > 100 µM (inactive) | > 100 µM (inactive) |
| N#CCCN(CCC#N)c1ccc(/C=C2\N=C(c3cc([N+](=O)[O-])ccc3Cl)N(S(=O)(=O)c3ccccc3)C2=O)cc1 | > 100 µM (inactive) | – | > 100 µM (inactive) | > 100 µM (inactive) | > 100 µM (inactive) | > 100 µM (inactive) | > 100 µM (inactive) | > 100 µM (inactive) | > 100 µM (inactive) | > 100 µM (inactive) | – | > 100 µM (inactive) | > 100 µM (inactive) | > 100 µM (inactive) | > 100 µM (inactive) | > 100 µM (inactive) | > 100 µM (inactive) | > 100 µM (inactive) | > 100 µM (inactive) | > 100 µM (inactive) |
| CC(=O)C(=O)NC1/C=C(C)\C=C/C(O)C/C=C(C)\C=C/C(O)CC2OC(=O)C1(C)C(=O)C2C (centres undefined) | > 100 µM (inactive) | > 100 µM (inactive) | > 31.2 µM (inactive) | > 100 µM (inactive) | > 100 µM (inactive) | > 100 µM (inactive) | > 100 µM (inactive) | > 100 µM (inactive) | > 100 µM (inactive) | > 61.1 µM (inactive) | > 100 µM (inactive) | > 55.1 µM (inactive) | > 100 µM (inactive) | > 62.2 µM (inactive) | > 100 µM (inactive) | > 100 µM (inactive) | > 100 µM (inactive) | > 100 µM (inactive) | > 100 µM (inactive) | > 100 µM (inactive) |
| CCN(CC)CCCOC(=O)/C=C/c1c(C)[nH]c(=O)[nH]c1=O | > 625 µM (inactive) | > 625 µM (inactive) | > 625 µM (inactive) | > 625 µM (inactive) | 56.9 µM (inactive) | > 625 µM (inactive) | 135 µM (inactive) | > 625 µM (inactive) | > 625 µM (inactive) | > 625 µM (inactive) | > 625 µM (inactive) | > 625 µM (inactive) | > 625 µM (inactive) | > 625 µM (inactive) | > 625 µM (inactive) | > 625 µM (inactive) | > 625 µM (inactive) | > 625 µM (inactive) | > 625 µM (inactive) | > 625 µM (inactive) |
| CSc1nc(NC2OC(CO)C(O)C(O)C2O)c(N)c(=O)n1C (centres undefined) | > 100 µM (inactive) | > 100 µM (inactive) | > 100 µM (inactive) | > 100 µM (inactive) | > 100 µM (inactive) | > 100 µM (inactive) | > 100 µM (inactive) | > 100 µM (inactive) | > 100 µM (inactive) | > 100 µM (inactive) | > 100 µM (inactive) | > 100 µM (inactive) | > 100 µM (inactive) | > 100 µM (inactive) | > 100 µM (inactive) | > 100 µM (inactive) | > 100 µM (inactive) | > 100 µM (inactive) | > 100 µM (inactive) | > 100 µM (inactive) |
| CO/N=C1/c2sccc2[C@H](NC(=O)C(Cc2ccccc2)NC(=O)OC(C)(C)C)[C@@H]1O (some centres undefined) | > 100 µM (inactive) | > 100 µM (inactive) | 93.3 µM (inactive) | – | > 100 µM (inactive) | > 100 µM (inactive) | > 100 µM (inactive) | > 100 µM (inactive) | > 100 µM (inactive) | > 100 µM (inactive) | > 100 µM (inactive) | – | – | > 100 µM (inactive) | > 100 µM (inactive) | > 100 µM (inactive) | > 100 µM (inactive) | > 100 µM (inactive) | > 100 µM (inactive) | > 100 µM (inactive) |
| CCC1CN2CCc3cc(OC)c(OC)cc3C2CC1CC1c2cc(OC)c(OC)cc2CCN1C(=O)C(N)Cc1ccccc1.[O-][Cl+3]([O-])([O-])O (centres undefined) | 1.85 µM (inactive) | 2.35 µM (inactive) | 0.239 µM (active) | – | 1.19 µM (inactive) | 0.564 µM (active) | 1.97 µM (inactive) | 2.42 µM (inactive) | 1.6 µM (inactive) | 0.238 µM (active) | – | 1.94 µM (inactive) | – | – | 0.305 µM (active) | 0.386 µM (active) | 2.56 µM (inactive) | 3.08 µM (inactive) | – | 1.26 µM (inactive) |
| CNC(=S)N/N=C(/C)CCC/C(C)=N/NC(=S)NC | > 100 µM (inactive) | > 100 µM (inactive) | 0.0414 µM (active) | – | > 100 µM (inactive) | – | 57.4 µM (inactive) | > 100 µM (inactive) | 5.45 µM (inactive) | 0.408 µM (active) | 0.151 µM (active) | 5.61 µM (inactive) | – | 0.308 µM (active) | – | 1.8 µM (inactive) | > 100 µM (inactive) | 1 µM (active) | 3.02 µM (inactive) | 0.778 µM (active) |
| C[n+]1ccc(Nc2ccc(NC(=O)c3ccc(Nc4cc[n+](C)c5ccc([N+](=O)[O-])cc45)cc3[N+](=O)[O-])cc2)cc1 | > 73.3 µM (inactive) | 24.3 µM (inactive) | 32.3 µM (inactive) | 1.05 µM (active) | 22.8 µM (inactive) | > 100 µM (inactive) | 31.7 µM (inactive) | > 55.6 µM (inactive) | 22.5 µM (inactive) | 14.3 µM (inactive) | – | 24 µM (inactive) | 20 µM (inactive) | 14 µM (inactive) | 31.1 µM (inactive) | > 68.2 µM (inactive) | 22.8 µM (inactive) | – | – | 45.7 µM (inactive) |
| COc1cc(O)c(Cc2ccccc2O)c(O)c1C(=O)CCc1ccccc1 [UVARETIN] | 6.55 µM (inactive) | 5.36 µM (inactive) | 3.85 µM (inactive) | 4.09 µM (inactive) | 3.99 µM (inactive) | 6.1 µM (inactive) | 6.41 µM (inactive) | 4.17 µM (inactive) | 5.92 µM (inactive) | 5.26 µM (inactive) | 5.81 µM (inactive) | 2.44 µM (inactive) | 6.07 µM (inactive) | 5.92 µM (inactive) | 4.31 µM (inactive) | 6.05 µM (inactive) | 5.41 µM (inactive) | 4.6 µM (inactive) | 6.97 µM (inactive) | 6.19 µM (inactive) |
